Like-named read-outs stand apart in the source and are kept apart here.
Key:
Format in all cases: cell-based, mouse
mES cells [1] = assay: mRNA 3' end sequencing (Quant-seq/SLAM-seq) of mES cells after s^4U metabolic labeling
Procedure: (§1) mES cells were seeded the day before the experiment at a density of 10^5 cells/ml in 10 cm dishes. s^4U-metabolic labeling was performed by incubation of mES cells in standard medium but adding 100 μM s^4U or s^6G (SIGMA) from a 500 mM stock solution in water. During the metabolic labeling, s^4U or s^6G containing medium was exchanged every 3 h. For the uridine chase experiment, s^4U or s^6G containing medium was discarded, cells were washed twice with 1× PBS and incubated with standard medium supplemented with 10 mM uridine (SIGMA). […]
For analysis of mRNA 3′ end sequencing (Quant-seq) datasets, reads were demultiplexed using Picard Tools BamIndexDecoder v1.13 allowing 1 mismatch in the barcode. Five nucleotides at the 5′ end of demultiplexed reads were trimmed. Reads were aligned to mouse genome mm10 and alignments in annotated 3′ UTRs (Gencode) were counted using SLAMdunk (Neumann & Rescheneder, t-neumann.github.io/slamdunk/; Herzog et al., Nature Methods 14, 1198-1204 (2017)). Briefly, SLAMdunk relies on NextGenMap, a flexible and fast read mapping program, and was tailored using an adapted scoring scheme eliminating T>C mismatch penalties for the mapping step. T>C containing reads and non-T>C containing reads aligning to 3′ UTRs were quantified to deduce s^4U- or unlabeled transcript abundance, respectively. […]

mES cells [2] = assay: Cell viability assay (CellTiter-Glo) of mES cells cultured with s^4U; conditions: for EC50: Mus musculus, read-out: EC50 of compromised cell viability
Procedure: 5000 mES cells were seeded per 96 well the day before the experiment. Medium containing different concentrations of s^4U (as indicated) was added to the cells for 12 h or 24 h. Cell viability was assessed by CellTiter-Glo® Luminescent Cell Viability Assay (Promega) according to the instructions of the manufacturer. Luminescent signal was measured on Synergy using Gen5 Software (v2.09.1).
We tested the ability of mouse embryonic stem cells to tolerate s^4U metabolic RNA-labeling after 12 h or 24 h at varying s^4U concentrations (FIG. 6A). […] Under these conditions, we detected a steady increase in s^4U-incorporation in total RNA preparation 3 h, 6 h, 12 h, and 24 h post labeling, as well as a steady decrease 3 h, 6 h, 12 h, and 24 h after uridine chase (FIG. 6B). As expected, the incorporation follows a single exponential kinetics, with a maximum average incorporation of 1.78% s^4U, corresponding to one s^4U incorporation in every 56 uridines in total RNA (FIG. 6C). These experiments establish s^4U-labeling conditions in mES cells, which can be employed to measure RNA biogenesis and turnover rates under unperturbed conditions.

mES cells [3] = assay: HPLC analysis of s^4U-incorporation into total RNA of mES cells after metabolic labeling; conditions: 100 μM s^4U, 24 h labeling
Procedure: Analysis of s^4U- or s^6G-incorporation into total RNA following metabolic labeling was performed as previously described by Spitzer et al. (Meth Enzymol. 539, 113-161 (2014)).
as §1, with “(SIGMA). Cells were directly lysed in TRIzol® (Ambion) and RNA was extracted following the manufacturer instructions except that 0.1 mM final concentration of DTT was added during isopropanol precipitation. RNA was resuspended in 1 mM DTT.” for “(SIGMA).”
We tested the ability of mouse embryonic stem cells to tolerate s^4U metabolic RNA-labeling after 12 h or 24 h at varying s^4U concentrations (FIG. 6A). […] Under these conditions, we detected a steady increase in s^4U-incorporation in total RNA preparation 3 h, 6 h, 12 h, and 24 h post labeling, as well as a steady decrease 3 h, 6 h, 12 h, and 24 h after uridine chase (FIG. 6B). […]

`O=c1[nH]c(=S)ccn1[C@@H]1O[C@H](CO)[C@@H](O)[C@H]1O` [s^4U, 4-thiouridine] was tested, and the “median s^4U-incorporation in mRNA (3' UTRs)” value (mES cells [1]; 24 h labeling) was 2.56%, the “increase in T>C mutation rates” value (mES cells [1]; 24 h labeling vs unlabeled) was 25 fold and the “effect on cell viability” value (mES cells [2]; 100 μM s^4U) was “did not severely affect cell viability”. For the same compound, the EC50 (mES cells [2]; 12 h labeling) was 3.1 mM, the EC50 (mES cells [2]; 24 h labeling) was 0.38 mM and the “maximum average s^4U incorporation in total RNA” value (mES cells [3]) was 1.78%.

— US11859248B2, “Nucleic acid modification and identification method” (IMBA—INSTITUT FÜR MOLEKULARE BIOTECHNOLOGIE GMBH, priority 2017, dated 2024)
